Columns and labels:
[1] = biological target: Type-2 angiotensin II receptor (Homo sapiens) (UniProt P50052); assay: Binding affinity to human angiotensin AT2 receptor at 10 uM by radioligand displacement assay relative to control
Homo sapiens [2] = species on record: Homo sapiens; assay: Binding affinity to sodium channel site 2 (unknown origin) at 10 uM by radioligand displacement assay relative to control
[3] = biological target: Adrenergic receptor alpha-1 (Homo sapiens) (UniProt P35348+P25100+P35368); assay: Binding affinity to human adrenergic alpha1 receptor at 10 uM by radioligand displacement assay relative to control
Mus musculus [4] = assay: Toxicity in ICR mouse assessed as effect on locomotor activity measured moved distance per 4 mins at 10 mg/kg, ip after 30 mins by open field test (reference value: 1124 121 cm); format: organism-based; parameters: dose 10 mg/kg, route intraperitoneal; details: in vivo
Mus musculus [5] = assay: Toxicity in ICR mouse assessed as effect on locomotor activity measured moved distance per 4 mins at 100 mg/kg, ip after 240 mins by open field test (reference value: 398 70 cm); format: organism-based; parameters: dose 100 mg/kg, route intraperitoneal; details: in vivo
Homo sapiens [6] = species on record: Homo sapiens; assay: Binding affinity to peripheral-type BZD receptor (unknown origin) at 10 uM by radioligand displacement assay relative to control
[7] = biological target: Cannabinoid receptor 1 (Homo sapiens) (UniProt P21554); assay: Binding affinity to human CB1 receptor at 10 uM by radioligand displacement assay relative to control
Mus musculus [8] = assay: Toxicity in ICR mouse assessed as effect on locomotor activity measured moved distance per 4 mins at 1 mg/kg, ip after 30 mins by open field test (reference value: 1124 121 cm); format: organism-based; parameters: dose 1 mg/kg, route intraperitoneal; details: in vivo
Mus musculus [9] = assay: Toxicity in ICR mouse assessed as effect on locomotor activity measured moved distance per 4 mins at 10 mg/kg, ip after 240 mins by open field test (reference value: 398 70 cm); format: organism-based; parameters: dose 10 mg/kg, route intraperitoneal; details: in vivo
Mus musculus [10] = assay: Toxicity in ICR mouse assessed as effect on locomotor activity measured moved distance per 4 mins at 100 mg/kg, ip after 120 mins by open field test (reference value: 578 126 cm); format: organism-based; parameters: dose 100 mg/kg, route intraperitoneal; details: in vivo
Homo sapiens [11] = species on record: Homo sapiens; assay: Binding affinity to P2Y receptor (unknown origin) at 10 uM by radioligand displacement assay relative to control
[12] = biological target: Mu-type opioid receptor (Homo sapiens) (UniProt P35372); assay: Binding affinity to mu opioid receptor (unknown origin) at 10 uM by radioligand displacement assay relative to control
Mus musculus [13] = assay: Toxicity in ICR mouse assessed as effect on locomotor activity measured moved distance per 4 mins at 1 mg/kg, ip after 120 mins by open field test (reference value: 578 126 cm); format: organism-based; parameters: dose 1 mg/kg, route intraperitoneal; details: in vivo
[14] = biological target: B2 bradykinin receptor (Homo sapiens) (UniProt P30411); assay: Binding affinity to human bradykinin B2 receptor at 10 uM by radioligand displacement assay relative to control
Mus musculus [15] = assay: Antiamnesic activity in ICR mouse scopolamine-induced memory impairment model assessed as increase in retention latency at 10 mg/kg, ip administered 60 mins prior to scopolamine challenge measured after 40 mins by passive avoidance test relative to scopolamine-treated control; format: functional; details: route intraperitoneal
[16] = biological target: Melanocortin receptor 4 (Homo sapiens) (UniProt P32245); assay: Binding affinity to human MC4 receptor at 10 uM by radioligand displacement assay relative to control
[17] = biological target: Sigma non-opioid intracellular receptor 1 (Homo sapiens, UniProt Q99720); assay: Displacement of [3H]1,3-di(2-tolyl)guanidine from sigma 1 receptor in human Jurkat cells; format: cell-based
[18] = biological target: voltage-gated potassium channel (Homo sapiens, UniProt O43525+O43526+O95259+P16389+P17658+P22001+P22459+P22460+P48547+P51787+P56696+Q03721+Q09470+Q12809+Q14003+Q14721+Q16322+Q6PIU1+Q8NCM2+Q8TAE7+Q8TDN1+Q8TDN2+Q92953+Q96KK3+Q96L42+Q96PR1+Q96RP8+Q9BQ31+Q9H252+Q9H3M0+Q9NR82+Q9NS40+Q9NSA2+Q9NZV8+Q9UIX4+Q9UJ96+Q9UK17+Q9ULD8+Q9ULS6+Q9UQ05); assay: Binding affinity to voltage-gated potassium channel (unknown origin) at 10 uM by radioligand displacement assay relative to control; format: protein assay
[19] = biological target: C-C chemokine receptor type 1 (Homo sapiens) (UniProt P32246); assay: Binding affinity to human CCR1 at 10 uM by radioligand displacement assay relative to control
[20] = biological target: 5-hydroxytryptamine receptor 2C (Homo sapiens) (UniProt P28335); assay: Binding affinity to human 5-HT2C receptor at 10 uM by radioligand displacement assay relative to control
[21] = biological target: Vasopressin V1a receptor (Homo sapiens) (UniProt P37288); assay: Binding affinity to human vasopressin V1a receptor at 10 uM by radioligand displacement assay relative to control
[22] = biological target: Galanin receptor type 2 (Homo sapiens) (UniProt O43603); assay: Binding affinity to human GAL2 receptor at 10 uM by radioligand displacement assay relative to control
Mus musculus [23] = assay: Cognitive enhancing effect in ip dosed ICR mouse assessed as increase in retention latency administered 60 mins prior to testing measured after 24 hrs by passive avoidance test; format: functional, organism-based
Homo sapiens [24] = species on record: Homo sapiens; assay: Binding affinity to bombesin receptor (unknown origin) at 10 uM by radioligand displacement assay relative to control
[25] = biological target: D(1A) dopamine receptor (Homo sapiens) (UniProt P21728); assay: Binding affinity to human dopamine D1 receptor at 10 uM by radioligand displacement assay relative to control
[26] = biological target: Kappa-type opioid receptor (Homo sapiens) (UniProt P41145); assay: Binding affinity to kappa opioid receptor (unknown origin) at 10 uM by radioligand displacement assay relative to control
[27] = biological target: C-X-C chemokine receptor type 2 (Homo sapiens) (UniProt P25025); assay: Binding affinity to human CXCR2 at 10 uM by radioligand displacement assay relative to control
Mus musculus [28] = assay: Toxicity in ICR mouse assessed as effect on locomotor activity measured moved distance per 4 mins at 1 mg/kg, ip after 60 mins by open field test (reference value: 623 136 cm); format: organism-based; parameters: dose 1 mg/kg, route intraperitoneal; details: in vivo
Mus musculus [29] = assay: Toxicity in ICR mouse assessed as effect on locomotor activity measured moved distance per 4 mins at 10 mg/kg, ip after 60 mins by open field test (reference value: 623 136 cm); format: organism-based; parameters: dose 10 mg/kg, route intraperitoneal; details: in vivo
[30] = biological target: 5-hydroxytryptamine receptor 7 (Homo sapiens) (UniProt P34969); assay: Binding affinity to human 5-HT7 receptor at 10 uM by radioligand displacement assay relative to control
[31] = biological target: Adenosine receptor A1 (Homo sapiens) (UniProt P30542); assay: Binding affinity to human adenosine A1 receptor at 10 uM by radioligand displacement assay relative to control
Sequence of Adenosine receptor A1 (Homo sapiens) (P30542 whole entry): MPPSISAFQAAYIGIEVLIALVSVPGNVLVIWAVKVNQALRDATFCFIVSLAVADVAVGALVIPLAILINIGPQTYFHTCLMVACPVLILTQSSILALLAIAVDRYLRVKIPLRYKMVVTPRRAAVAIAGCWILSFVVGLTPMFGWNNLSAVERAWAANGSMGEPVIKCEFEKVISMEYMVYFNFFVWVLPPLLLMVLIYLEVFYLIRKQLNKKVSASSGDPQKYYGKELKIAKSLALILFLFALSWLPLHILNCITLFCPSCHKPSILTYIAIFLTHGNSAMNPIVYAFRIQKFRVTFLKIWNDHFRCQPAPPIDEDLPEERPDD

Sequence of Cannabinoid receptor 1 (Homo sapiens) (P21554 whole entry): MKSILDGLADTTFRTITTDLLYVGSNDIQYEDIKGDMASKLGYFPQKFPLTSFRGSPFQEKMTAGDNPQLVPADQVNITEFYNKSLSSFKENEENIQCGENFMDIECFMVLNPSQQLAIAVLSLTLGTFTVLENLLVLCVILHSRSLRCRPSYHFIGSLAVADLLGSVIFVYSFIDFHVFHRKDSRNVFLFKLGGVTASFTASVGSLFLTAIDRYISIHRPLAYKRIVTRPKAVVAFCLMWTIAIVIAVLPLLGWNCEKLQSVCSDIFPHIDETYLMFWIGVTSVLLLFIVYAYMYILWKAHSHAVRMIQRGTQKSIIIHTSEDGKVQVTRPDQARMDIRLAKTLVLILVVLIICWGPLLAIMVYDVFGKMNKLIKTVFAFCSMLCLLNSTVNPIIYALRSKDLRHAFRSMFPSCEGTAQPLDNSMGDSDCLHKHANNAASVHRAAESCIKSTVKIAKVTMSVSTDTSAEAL
Sequence of 5-hydroxytryptamine receptor 2C (Homo sapiens) (P28335 whole entry): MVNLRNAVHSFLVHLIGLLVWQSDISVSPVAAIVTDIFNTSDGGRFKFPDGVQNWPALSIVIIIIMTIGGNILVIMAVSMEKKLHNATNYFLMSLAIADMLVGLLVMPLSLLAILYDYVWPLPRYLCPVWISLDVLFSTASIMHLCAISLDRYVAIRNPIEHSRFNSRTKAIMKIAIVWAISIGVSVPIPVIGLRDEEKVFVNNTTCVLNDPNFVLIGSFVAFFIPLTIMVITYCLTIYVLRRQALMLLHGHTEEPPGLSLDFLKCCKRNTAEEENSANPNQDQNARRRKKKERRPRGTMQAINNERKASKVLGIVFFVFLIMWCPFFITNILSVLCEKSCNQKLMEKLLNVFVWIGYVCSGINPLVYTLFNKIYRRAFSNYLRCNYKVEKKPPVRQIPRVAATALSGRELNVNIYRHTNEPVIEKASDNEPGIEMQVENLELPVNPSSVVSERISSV
Sequence of Sigma non-opioid intracellular receptor 1 (Q99720 whole entry): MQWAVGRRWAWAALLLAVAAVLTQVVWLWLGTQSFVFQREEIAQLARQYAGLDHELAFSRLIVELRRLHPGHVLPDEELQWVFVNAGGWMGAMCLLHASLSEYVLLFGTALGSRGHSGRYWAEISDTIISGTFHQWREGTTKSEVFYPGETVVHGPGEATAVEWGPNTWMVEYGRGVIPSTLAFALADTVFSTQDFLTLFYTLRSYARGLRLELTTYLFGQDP
Sequence of Kappa-type opioid receptor (Homo sapiens) (P41145 whole entry): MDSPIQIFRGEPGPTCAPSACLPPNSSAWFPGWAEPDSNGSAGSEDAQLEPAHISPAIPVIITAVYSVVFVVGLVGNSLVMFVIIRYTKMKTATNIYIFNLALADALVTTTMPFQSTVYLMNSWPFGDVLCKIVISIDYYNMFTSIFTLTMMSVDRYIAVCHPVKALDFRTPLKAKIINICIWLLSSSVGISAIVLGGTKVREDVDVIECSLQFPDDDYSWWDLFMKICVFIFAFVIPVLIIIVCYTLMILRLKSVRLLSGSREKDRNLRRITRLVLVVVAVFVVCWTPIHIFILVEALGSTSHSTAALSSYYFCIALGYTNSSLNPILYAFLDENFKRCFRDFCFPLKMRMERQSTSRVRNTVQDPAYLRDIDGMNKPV
Sequence of Melanocortin receptor 4 (Homo sapiens) (P32245 whole entry): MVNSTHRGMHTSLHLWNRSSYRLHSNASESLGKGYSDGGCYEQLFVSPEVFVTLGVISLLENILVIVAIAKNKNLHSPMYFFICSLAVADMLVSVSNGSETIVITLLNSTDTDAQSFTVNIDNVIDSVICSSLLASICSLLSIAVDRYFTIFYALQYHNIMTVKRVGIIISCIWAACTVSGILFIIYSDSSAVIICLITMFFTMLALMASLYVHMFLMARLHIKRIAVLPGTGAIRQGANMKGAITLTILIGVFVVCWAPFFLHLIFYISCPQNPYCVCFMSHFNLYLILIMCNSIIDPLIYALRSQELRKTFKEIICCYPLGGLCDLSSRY
Sequence of Vasopressin V1a receptor (Homo sapiens) (P37288 whole entry, looked up): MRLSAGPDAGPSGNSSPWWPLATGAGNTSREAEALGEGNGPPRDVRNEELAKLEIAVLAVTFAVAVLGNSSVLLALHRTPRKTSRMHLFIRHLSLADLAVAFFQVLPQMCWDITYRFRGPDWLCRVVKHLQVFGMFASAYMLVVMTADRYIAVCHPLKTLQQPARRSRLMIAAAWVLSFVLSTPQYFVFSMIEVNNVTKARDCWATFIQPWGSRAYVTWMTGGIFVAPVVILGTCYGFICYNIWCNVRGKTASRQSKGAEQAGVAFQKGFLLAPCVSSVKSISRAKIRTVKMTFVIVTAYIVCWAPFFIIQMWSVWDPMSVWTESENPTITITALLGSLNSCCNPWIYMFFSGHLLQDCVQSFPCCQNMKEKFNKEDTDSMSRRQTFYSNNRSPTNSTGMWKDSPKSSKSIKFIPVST
Sequence of Mu-type opioid receptor (Homo sapiens) (P35372 whole entry): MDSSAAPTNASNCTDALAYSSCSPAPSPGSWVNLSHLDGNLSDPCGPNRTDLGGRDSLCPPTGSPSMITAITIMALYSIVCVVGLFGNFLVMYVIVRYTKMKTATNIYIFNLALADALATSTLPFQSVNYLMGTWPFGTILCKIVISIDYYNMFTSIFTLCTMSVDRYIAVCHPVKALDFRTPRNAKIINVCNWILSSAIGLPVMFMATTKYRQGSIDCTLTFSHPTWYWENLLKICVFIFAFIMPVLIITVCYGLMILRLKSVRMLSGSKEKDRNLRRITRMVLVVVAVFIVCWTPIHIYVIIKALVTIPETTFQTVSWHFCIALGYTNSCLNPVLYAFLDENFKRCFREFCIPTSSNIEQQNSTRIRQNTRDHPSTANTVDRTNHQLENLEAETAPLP
Sequence of C-X-C chemokine receptor type 2 (Homo sapiens) (P25025 whole entry): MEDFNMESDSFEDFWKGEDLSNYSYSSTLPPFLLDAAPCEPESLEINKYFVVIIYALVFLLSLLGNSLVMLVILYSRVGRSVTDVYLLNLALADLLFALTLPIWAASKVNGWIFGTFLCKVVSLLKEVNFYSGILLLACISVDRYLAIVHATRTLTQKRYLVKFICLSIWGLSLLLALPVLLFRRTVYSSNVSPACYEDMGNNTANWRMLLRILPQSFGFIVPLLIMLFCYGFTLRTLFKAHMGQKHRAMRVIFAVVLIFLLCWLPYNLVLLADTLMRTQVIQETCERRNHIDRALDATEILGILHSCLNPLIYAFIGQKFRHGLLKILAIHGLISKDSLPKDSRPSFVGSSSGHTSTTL
Sequence of B2 bradykinin receptor (Homo sapiens) (P30411 whole entry): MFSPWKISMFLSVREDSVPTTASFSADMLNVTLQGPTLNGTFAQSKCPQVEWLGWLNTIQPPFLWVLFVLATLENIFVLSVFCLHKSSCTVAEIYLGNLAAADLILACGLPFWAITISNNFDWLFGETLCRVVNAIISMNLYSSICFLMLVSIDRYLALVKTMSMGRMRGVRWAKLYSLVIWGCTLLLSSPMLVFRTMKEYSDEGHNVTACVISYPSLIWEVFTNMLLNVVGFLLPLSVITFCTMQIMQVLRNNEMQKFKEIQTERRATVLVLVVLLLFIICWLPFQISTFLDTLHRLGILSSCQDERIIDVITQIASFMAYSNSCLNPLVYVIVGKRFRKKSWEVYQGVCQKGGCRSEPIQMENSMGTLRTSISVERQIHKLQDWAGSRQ
Sequence of C-C chemokine receptor type 1 (Homo sapiens) (P32246 whole entry): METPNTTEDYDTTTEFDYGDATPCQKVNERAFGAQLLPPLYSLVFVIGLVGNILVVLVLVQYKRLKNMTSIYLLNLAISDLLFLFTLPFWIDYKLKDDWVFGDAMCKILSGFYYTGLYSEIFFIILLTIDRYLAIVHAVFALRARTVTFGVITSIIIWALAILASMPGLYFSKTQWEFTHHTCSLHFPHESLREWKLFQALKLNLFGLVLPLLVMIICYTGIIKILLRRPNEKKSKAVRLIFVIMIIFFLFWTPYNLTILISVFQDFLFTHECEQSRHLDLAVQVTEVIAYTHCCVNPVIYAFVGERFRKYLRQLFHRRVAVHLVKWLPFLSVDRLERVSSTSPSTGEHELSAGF
Sequence of D(1A) dopamine receptor (Homo sapiens) (P21728 whole entry): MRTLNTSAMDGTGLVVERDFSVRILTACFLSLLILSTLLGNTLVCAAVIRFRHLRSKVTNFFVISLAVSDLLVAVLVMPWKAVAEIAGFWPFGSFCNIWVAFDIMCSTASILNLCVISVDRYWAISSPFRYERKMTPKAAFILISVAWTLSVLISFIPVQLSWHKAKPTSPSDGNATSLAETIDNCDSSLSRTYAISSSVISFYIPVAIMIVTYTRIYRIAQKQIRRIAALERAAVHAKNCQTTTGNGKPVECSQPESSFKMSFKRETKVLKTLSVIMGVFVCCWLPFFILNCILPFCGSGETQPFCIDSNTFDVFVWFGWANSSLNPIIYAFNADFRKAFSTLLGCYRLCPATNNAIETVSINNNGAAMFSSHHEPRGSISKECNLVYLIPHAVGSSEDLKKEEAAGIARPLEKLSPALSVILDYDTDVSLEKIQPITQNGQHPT

## C[C@H]1[C@@H](c2ccccc2)CC(=O)N1CC(N)=O
[1]
  inhibition: -5%
Homo sapiens [2]
  inhibition: 5%
[3]
  inhibition: -5%
Mus musculus [4]
  Activity: 1026 cm
Mus musculus [5]
  Activity: 458 cm
Homo sapiens [6]
  inhibition: 3%
[7]
  inhibition: -3%
Mus musculus [8]
  Activity: 1402 cm
Mus musculus [9]
  Activity: 359 cm
Mus musculus [10]
  Activity: 470 cm
Homo sapiens [11]
  inhibition: -4%
[12]
  inhibition: -7%
Mus musculus [13]
  Activity: 688 cm
[14]
  inhibition: 3%
Mus musculus [15]
  Activity: 209%
[16]
  inhibition: 4%
[17]
  IC50: 43 nM
[18]
  inhibition at 10 µM: -2%
[19]
  inhibition: -5%
[20]
  inhibition: -2%
[21]
  inhibition: 2%
[22]
  inhibition: -4%
Mus musculus [23]
  Activity: Dose-dependent effect
Homo sapiens [24]
  inhibition: -5%
[25]
  inhibition: -6%
[26]
  inhibition: -5%
[27]
  inhibition: 2%
Mus musculus [28]
  Activity: 871 cm
Mus musculus [29]
  Activity: 640 cm
[30]
  inhibition: -4%
[31]
  inhibition: 2%
